Assay results published in patent publication US7259146B2, “Neuroprotective peptides” (Ortho-McNeil Pharmaceutical, Inc., priority 2000, dated 2007).
“Also recorded” adds a separate entry of the source.

Assays:
[1] = test system: bak; test: EPO induced gene expression in PC12 cells (quantitative RT-PCR); assay type: cell-based, rat; conditions: PC-12 cells
Method: (§1) PC-12 cells (from a rat Pheochromocytoma) were cultured on poly-D-Lysine coated tissue culture plastic in DMEM containing 10% FBS and 5% Horse serum. To induce the neuronal phenotype in PC-12 cells, serum was removed and the cells were treated with NGF (50 ng/ml). Cells were grown for 7 days in the presence of the NGF then used for experiments.
(§2) PC-12 cells were cultured as described in Example 1 in a 10 cm poly-D-lysine coated tissue culture dish. Cells were incubated in the presence of 1 U/ml of EPO for 24 hr. Total RNAn was then isolated using a Qiagen RNAeasy mini prep kit and used for RT-PCR.
(§3) Real time reverse transcription and PCR were performed in a single reaction using a light cycler and an RNA amplification kit from Roche Molecular Biochemicals. RNA was quantitated and added in equal amounts to reaction mix that includes the dsDNA specific dye SYBR green I. Specific PCR reaction products are quantitated by detecting the amount of fluorescence in the reaction at each PCR cycle. Final analysis was performed using the data analysis software included with the light cycler instrument.

[2] = test system: bclXL; test: as above; assay type: cell-based, rat; conditions: PC-12 cells
Method: as §1, §2, §3

[3] = test system: PC-12 cells; test: NGF withdrawal in PC-12 cells; assay type: cell-based, rat; conditions: for protection against NGF withdrawal-induced cell death (in words): treated 24 hr before NGF removal, viable cells at 12, 24, 48, 72 hr
Method: as §1
PC-12 cells were cultured as described above in a 96 well poly-d-lysine coated multi-well plate and treated with rhEPO (1 pm to 10 nm) for 24 hr prior to NGF withdrawal. On the day of the experiment the cells were washed with buffer 3 times to remove NGF and then cultured in fresh media without NGF. Immediately following NGF washout cells were counted (t=0) to determine the number of living cells. Cell viability was based on morphological characteristics including phase brightness, presence of axons, and absence of blebbing. Cell counts were performed at 12 hr, 24 hr, 48 hr and 72 hr and the number of viable cells were scored.

[4] = test system: spontaneous hypertensive rats rendered ischemic; test: Experimental model of cerebral ischemia (tandem CCA/MCA occlusion), infarct volume; assay type: in vivo, rat
Method: Male spontaneous hypertensive rats (Charles River) weighing between 250–300 g were weighed and then anesthetized with ketamine (100 mg/ml)/xylazine (20 mg/ml) cocktail (1.2 ml/kg; i.p.). The level of anesthetic was assessed by corneal reflex (air puff to eye) and leg jerk in response to tail or foot pinch. Once the rat was anesthetized, it was placed on a small animal surgical board and restrained during the surgical procedure. The rat's body temperature was monitored continuously with a rectal probe and maintained at 37° C. with a homeostatic heating pad.
Rats were rendered ischemic by tandem occlusion of the left common carotid artery and the left middle cerebral artery for 2 h followed by 22 h of reperfusion using a modification of the technique described by Brint and co-workers (J. Cereb Blood Flow Metab 8:474–485, 1988). Specifically, the left CCA was isolated through an incision in the ventral surface of the neck. For isolation of the ipsilateral MCA, a second incision was made between the lateral canthus of the left eye and the corresponding external auditory canal to bare the underlying skull. […]
Twenty-hours prior to the onset of ischemia, an osmotic mini-pump (Model 1003D; Alza) filled with vehicle or EPO was placed between the scapula of the rat. […] Twenty-two hours later, the rats were evaluated for behavioral performance, a blood sample was collected for terminal plasma levels of EPO and then the rat was euthanized, brain removed, sectioned and stained for histological analysis.
(§4) On Day One, the rats were rendered ischemic as described above. […] Twenty-two hours later, the rats were evaluated for behavioral performance, a blood sample was collected for terminal plasma levels of EPO and then the rat was euthanized, brain removed, sectioned and stained for histological analysis.
as §4, with “analysis. […]” for “analysis.”

[5] = 1 nm EPO for 24 hr (FIG. 3 legend)

EPO: purified, recombinant human EPO (rhEPO), formulated and distributed under the trademarks EPREX, ERYPO or PROCRIT
decrease in the expression of the pro-apoptotic Bak [1, 5]: greater than 5 fold
decrease in the expression of the pro-apoptotic gene, bak ([1]; EPO 1 U/ml for 24 hr): 5 fold
increase in the expression of the anti-apoptotic gene, bclXL [2, 5]: 6 fold
increase in the expression of the anti-apoptotic gene, bclXL ([2]; EPO 1 U/ml for 24 hr): 6 fold
optimum / peak concentration for the neuroprotective effect ([3]; growth factor withdrawal): 10 pm
neuroprotective effect at 1 nm ([3]; growth factor withdrawal, 1 nm): no significant effect
dose response curve for the neuroprotective effect ([3]; growth factor withdrawal, protection decreasing above 10 pm): bi-phasic
protection against NGF withdrawal-induced cell death (in words) [3]: significant decrease in cell death; also recorded: increased the number of viable cells at each time point
protection against NGF withdrawal-induced cell death (in words) ([3]; listed as rhEPO): protects rat PC12 cells against NGF withdrawal-induced cell death
infarct volume / protection against ischemic injury ([4]; Study I: 132 or 1321 U/day continuous iv infusion via osmotic mini-pump, started before ischemia): significantly reduced infarct volume; also recorded: protects against ischemic injury
protection against ischemic damage ([4]; Study II: single iv bolus 15 min post-occlusion, 1000, 2500 or 5000 U/kg): did not protect against ischemic damage; also recorded: does not protect against ischemic injury
infarct volume / protection against ischemic injury ([4]; Study III: repeat iv bolus 2500 U/kg at 15 min, 2 h, 4 h and 6 h post-occlusion): significant decrease in infarct volume; also recorded: protects against ischemic injury
